Reference: US20260234159A1, “SMALL MOLECULE TREATMENT OF FATTY LIVER DISEASE AND HCC” (SCANDIEDGE THERAPEUTICS AB, priority 2023, published 2026)

Assays:
[1] = test system: polychromatic erythrocytes; assay: Micronucleus frequencies (MNPCEs) as genotoxicity endpoint; format: in vivo, Sprague Dawley male rats; settings: 30 mg/kg, seven days
Procedure: In addition to sampling for biochemical and haematological analysis, one drop of blood samples was obtained from the animals for evaluating micronucleus frequencies as genotoxicity endpoint at the end of the experiments. Three different smears of each rat were prepared using pre-coded and cold slides, then the slides air-dried at room temperature, and fixed in ethanol for 10 min, and stained with Giemsa. […] The incidence of MN-PCEs was determined by scoring a total of 3000 PCE per animal and results were expressed as % MN [12].

HSD fed rats = assay: In vivo efficacy study in high sucrose diet (HSD) steatosis rats; settings: HSD plus 30 mg/kg seven days
Source text: In vivo efficacy studies. After 1-week acclimation period, rats were randomly separated into two groups: control group (n=5) and high sucrose group (n=20). The control group was fed with a standard diet while the others consumed high sucrose diet (HSD). Sucrose was purchased from Sigma Chemical Co. (St Louis, MO, USA) and supplied at the dose of 10% in the drink water for two weeks.
After 2 weeks, five rats in the HSD group were randomly sacrificed for conformation of NAFLD model. Then, the remaining rats in the HSD group were separated into three sub-groups (n=5): HSD group, HSD plus BX-912 group and HSD plus JNK-IN-5A group. BX-912 and JNK-IN-5A were dissolved in DMSO and were orally administrated using oral gavage for one week (30 mg/kg/day). The HSD group were treated with vehicle solution only.
At the end of the experiment, rats were sacrificed after being anesthetized. Blood samples were collected from the abdominal aorta and centrifuged at 8000 rpm for 15 min at 4° C. The plasma was separated and stored at −80° C. until further analysis. Other internal organs, including the heart, adipose tissues, liver, kidney, muscle, intestine (duodenum, ileum, jejunum), pancreas, colon and stomach were immediately removed and then snap frozen in liquid nitrogen and stored at −80° C.; the liver was also fixed in 10% formaldehyde for histopathological examination.
Histopathological examination. The liver tissues were fixed in 10% buffered formaldehyde solution. After fixation, the tissues were passed through graded alcohol and xylene series and embedded in paraffin blocks. 5 micrometer thick sections were taken serially from the paraffin blocks. Histopathological changes were evaluated by performing hematoxylin eosin staining on the sections taken. Sections were evaluated according to histopathological findings as none (−), mild (+), moderate (++) and severe (+++).
Immunohistochemical examination. After deparaffinization, the slides were immersed in antigen retrieval solution (pH 6.0) and heated in microwave for 15 min to unmask the antigens. The sections were then dipped in 3% H2O2 for 10 min to block endogenous peroxidase activity. Protein block was dropped onto the sections, washed with PBS for 10 min. Primary antibodies (8-OH-dG, Cat No: sc-66036, Diluent Ratio: 1/100, Santa Cruz) were prepared and applied according to the usage conditions. Expose mouse and rabbit specific HRP/DAB detection IHC kit were used as follows: sections were incubated with goat anti-mouse antibody, then with streptavidin peroxidase, and finally with 3,3′ diamino benzidine+chromogen. Slides were counter stained with hematoxylin. Immunoreactivity in the sections were graded as none (−), mild (+), moderate (++) and severe (+++).

HepG2 cells [2] = assay: Autophagy assay; format: cell-based, human; settings: 10 μM, one day
Procedure: (§1) HepG2 cells were seeded into a 6-well plate at 400,000 cells per well. After treatment with the compounds at desired concentration and time, TMRE (ab113852, abcam), Autophagy (ab139484, abcam), ROS (ab113851, abcam), and Lipid peroxidation (ab243377, abcam) assay were performed according to manufacturer's instructions. Fluorescence images were taken using ZOE™ Fluorescent Cell Imager (Biorad) and ROI of fluorescence intensity was measured and calculated by Image J. For microplate reader florescence assay, 40,000 of HepG2 cells were seeded into a 96-well plate and triplicated. GFP (Ex480 nm, Em530 nm) and RFP (Ex549 nm, Em574 nm) were measured using a microplate reader (Hidex Sense Meta Plus).

p62 (SQSTM1) = assay: Western blot, p62 and p-S349 p62; format: cell-based, human; settings: 10 μM, 2 days
Procedure: HepG2 cells were seeded into a 6-well plate at 400,000 cells per well. After treatment with 10 μM of JNK-IN-5A and its derivatives for two days, lysates were harvested with CelLytic M (C2978, Sigma-Aldrich). 20 μg lysate was prepared with 2× Laemmli Sample Buffer (1610737, Biorad). SDS PAGE were performed using Mini-PROTEAN® TGX™ Precast Gels (Bio-Rad) and transferred using Trans-Blot® Turbo™ Transfer System (Bio-Rad). Primary antibody, PARP (95425, Cell signalling), Caspase 3 (ab32042, abcam), Bcl-2 (ab182858), STAT1 (HPA000982, Merk), PKL (06653, Sigma), PKM (4053S, Cell signalling), GAPDH (ab8245, abcam), P53 (ab32389, abcam), p21 (ab109199, abcam), p-S349 p62 (ab211324, abcam), p62 (ab109012, abcam), c-Myc (ab32072, abcam), GPX4 (ab125066, abcam), MMP9 (MA5-32705, Invitrogen), β-actin (ab8227, abcam), and α-tubulin (ab7291, abcam) were blotted overnight and Goat Anti-Rabbit HRP (ab205718) and goat anti-mouse IgG-HRP (sc2005, Santa Cruz Biotechnology, Inc.) were blotted for secondary antibody for one hour. ImageQuantTMLAS 500 (29-0050-63, GE) was used to detect protein bands.

HepG2 cells [3] = assay: MTT cell viability after one week steatosis (ranking of target molecules); format: cell-based, human
Outline: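 HepG2 cells, 60,000 per well, kept one week in steatosis medium (high-glucose DMEM, 10 μg/ml insulin, 10 μM T0901317) with 10 μM compound. Medium changed at day 0, 3 and 5. Viability measured by MTT.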

HepG2 cells [4] = assay: Lipid peroxidation assay; format: cell-based, human
Procedure: as §1

N#Cc1c(NC(=O)c2cccc3ccccc23)sc2c1CCCC2 [JNK-IN-5A, N-(3-cyano-4,5,6,7-tetrahydrobenzo[b]thiophen-2-yl)-1-naphthamide]
genotoxic potential [1]: non-genotoxic
frequencies of MNPCEs compared to Ctrl animals ([1]; p>0.05): not statistically different
toxic effect on small intestine, large intestine, stomach, heart and muscle tissues (HSD fed rats): no toxic effect
degeneration in hepatocytes in liver tissues (HSD fed rats; HSD 3w severe): mild
degeneration in renal tubule epithelium (HSD fed rats; HSD 3w severe): mild
fattening in the parenchyma cells of pancreas tissues (HSD fed rats; HSD 3w severe): mild
steatosis in hepatocytes in liver tissues (HSD fed rats; HSD 3w severe): mild
8-OH-dG expression in hepatocytes (HSD fed rats; HSD 3w strong): significantly decreased
autophagy GFP signals (HepG2 cells [2]): significantly increased

COc1ccc(C(=O)Nc2sc3c(c2C#N)CCCCC3)cc1OC [PKL-A135, N-(3-cyano-5,6,7,8-tetrahydro-4H-cyclohepta[b]thiophen-2-yl)-3,4-dimethoxy-benzamide]
levels of p62 and P-S349 p62 (p62 (SQSTM1)): significantly elevated

N#Cc1c(NC(=O)c2cccc3ccccc23)sc2c1CCN(C(=O)Nc1ccccc1OC(F)(F)F)C2 [PKL-A159]
cell viability of HepG2 (HepG2 cells [3]): exceptionally low cell viability

N#Cc1c(NC(=O)c2cccc3ccccc23)sc2c1CCN(CC(=O)Nc1cccc(Br)c1)C2 [PKL-B171]
GFP/RFP ratio (lipid peroxidation) (HepG2 cells [4]): statistically significant increase
